Each structure is given as a SMILES string. pIC50: −log10 of the molar value.

The record followed here is patent publication US11497713B2, “Combination taxoid nanoemulsion with immunotherapy in cancer” (TargaGenix, Inc., priority 2017, dated 2022).

Data set [1] has as its system Panc02 cells. As to the kind of experiment: Cell viability (MTT assay) in Panc02 cells. The class given is cell-based, murine. The note with it: 96 hours of drug exposure. Here is the method:
The murine pancreatic cancer cell line Panc02, which is syngeneic to C57Bl/6 mice was a kind gift from Professor Michael A. Hollingsworth, UNMC, Omaha, Nebr. Panc02 cells were grown in 75 cm^2 cell culture flasks and maintained in DMEM medium supplemented with 10% fetal bovine serum (FBS), L-glutamine and penicillin (100 U/ml)/streptomycin (100 μg/ml) (both from Gibco Life Technologies, Carlsbad, Calif., USA). Cells were incubated at 37° C. in a humidified atmosphere containing 5% CO2.
To see cytotoxic effect of different drugs and nanoemulsion formulation, 5000 cells were seeded in each well of the 96-well plate for overnight at 37° C. in a humidified atmosphere containing 5% CO2. Various drugs (Paclitaxel, Abraxane, Gemcitabine and solution and nanoemulsion of DHA-SBT-1214) were diluted at concentrations ranging from 0 nM, 0.01 nM, 0.1 nM, 1 nM, 10 nM, 100 nM, 1000 nM to 10000 nM and Panc02 cells treated with these concentrations for 96 hours. After incubation, cells were treated with 3-(4,5-dimethylthiazol-2-yl)-2,5-diphenyltetrazolium bromide ([…]). MU crystals were dissolved with DMSO and plates were read at 570 nm absorbance using a BioTek Synergy HTX Multi-Mode Microplate Reader.
Cells were seeded at 0.5×10^6 cells/well in 6-well plates for overnight at 37 C in a humidified atmosphere containing 5% CO2. […] The percentage maximal response is shown as a function of anti-cancer agents when administered to Panc02 cells. The cell viability was measured by the MTT assay after 96 hours of incubation at 37° C. Data represent mean±standard deviation (n=3). Significant differences are indicated as follows: *p<0.05, and **p<0.01. The expression level of PD-L1 was determined using flow cytometry as follows. […] The cells were washed once with 3% BSA/PBS and analyzed by flow cytometer on a FACSCalibur flow cytometer and CellQuest™ Pro version 6.0 software (both from Becton-Dickinson and Co.). […]
(Tetrazolium assays rely on reduction of a dye to a coloured formazan, in cell work by metabolically active cells.)

Data set [2] deals with PD-L1 surface expression in Panc02 cells. As to the kind of experiment: PD-L1 surface protein expression by flow cytometry. It is filed as cell-based, murine. The note with it: IC50 concentration, 48 hours. Here is the method: Cells were seeded at 0.5×10^6 cells/well in 6-well plates for overnight at 37 C in a humidified atmosphere containing 5% CO2. […] The percentage maximal response is shown as a function of anti-cancer agents when administered to Panc02 cells. The cell viability was measured by the MTT assay after 96 hours of incubation at 37° C. Data represent mean±standard deviation (n=3). Significant differences are indicated as follows: *p<0.05, and **p<0.01. The expression level of PD-L1 was determined using flow cytometry as follows. Briefly, cells harvested from in vitro cultures were washed twice with 3% BSA/PBS and then incubated with rat anti-PD-L1 or isotype control antibodies ([…], BioXcell, West Lebanon, N.H., USA) for 30 minutes at 4 C, then washed three times and incubated with anti-rat AlexaFluor 488 conjugated Antibody. The cells were washed once with 3% BSA/PBS and analyzed by flow cytometer on a FACSCalibur flow cytometer and CellQuest™ Pro version 6.0 software (both from Becton-Dickinson and Co.).
Panc02 cells were treated with gemcitabine, Abraxane™, paclitaxel and DHA-SBT-1214 both in solution and nanoemulsion for 48 hours to determine whether they can induce PD-L1 protein expression. PD-L1 expression levels on tumor cells were determined by flow cytometry and is expressed as the A mean fluorescence intensity (ΔMFI; MFI using anti-PD-L1 subtracted from the isotype control). […] PD-L1 expression was analyzed using flow cytometry and is presented as ΔMFI (MFI using anti-PD-L1 subtracted from the isotype control). Data represent the mean±standard deviation of at least 3 independent experiments; *p<0.05, **p<0.01, ***p<0.001. As reported previously, PD-L1 level enhanced in pancreatic tumor tissues compared to in vitro growing cells as shown in FIG. 8.

Data set [3] deals with Panc02 induced tumor. As to the kind of experiment: Subcutaneous Panc02 syngeneic pancreatic cancer model, single and combination therapy. The class given is in vivo, C57Bl/6 mice. The method, then: In addition to evaluation of efficacy in CSC-rich PDAC models, the efficacy of NE-DHA-SBT-1214 in combination with antibody targeted to PD-L1 immune checkpoint inhibitor was examined in subcutaneous (subQ) Panc-2 syngeneic pancreatic cancer model developed in […] mice. After transplantation of the Panc-2 cells, the mice were divided into groups for weekly treatment by intravenous administration of vehicle (as control), gemcitabine (at 120 mg/kg), ABRAXANE® (at 120 mg/kg) and NE-DHA-SBT-1214 (at 10 and 25 mg/kg) as either single in combination with either IgG control or anti-PD-L1 antibody (200 μg/dose). The antibodies were administered intraperitoneally. The treatment started two weeks after tumor transplantation when tumor mass became palpable at 50 to 150 mm^3 in volume.
All experiments involving the use of animals were carried out in strict accordance with the recommendations in the guide for the care and use of laboratory animals of the National Institutes of Health, via a research protocol that was approved by Northeastern University Institutional Animal Care and Use Committee (IACUC). […] Tumor development was monitored twice weekly. The tumor size was measured with a caliper on a weekly basis and approximate tumor volumes determined using the formula 0.5ab^2, where b is the smaller of the two perpendicular diameters. […]

Data set [4] relates to human CFPAC-1 pancreatic tumor xenograft. Nature of the data set: Human CFPAC-1 pancreatic tumor xenograft efficacy (FIG. 2). The note with it: 240 mg/kg or 300 mg/kg total dose. The class given is in vivo, mice.

Turning to `CC/C=C\C/C=C\C/C=C\C/C=C\C/C=C\C/C=C\CCC(=O)O[C@@H](C(=O)O[C@H]1C[C@@]2(O)[C@@H](OC(=O)c3ccccc3)[C@@H]3[C@]4(OC(C)=O)CO[C@@H]4C[C@H](O)[C@@]3(C)C(=O)[C@H](OC(=O)C3CC3)C(=C1C)C2(C)C)[C@H](C=C(C)C)NC(=O)OC(C)(C)C` [DHA-SBT-1214, Docosahexaenoic acid conjugate of SBT-1214], the pIC50 in data set [1] was 6.58. Besides, the “PD-L1 surface expression (ΔMFI)” value in data set [2] is on record as “upregulated”. Further, the “efficacy compared to abraxane at 120 mg/kg” value in data set [3] (10 mg/kg) was “superior to abraxane treatment”. In data set [4], the weight loss result is recorded as “negligible”.
Turning to `Nc1ccn([C@@H]2O[C@H](CO)[C@@H](O)C2(F)F)c(=O)n1` [gemcitabine], in data set [1] (Mus musculus), the pIC50 was 6.81. Moreover, the “PD-L1 surface expression (ΔMFI)” value in data set [2] is “upregulated”. The tumor growth suppression result in data set [3] (120 mg/kg weekly ×3) is listed as “moderate effect”.

For orientation: pIC50 means the negative decadic logarithm of the IC50, by convention in mol/L.
